Consider one substance from patent US20160000869A1, “METHODS OF TREATING IPEX SYNDROME USING TOXIN-BASED PHARMACEUTICAL COMPOSITIONS” (KINETA ONE, LLC, priority 2013, published 2016).

The test system of experiment [1] is IPEX and secondary conditions related to IPEX. The experiment is described as follows: Administration of effective amounts to subjects with IPEX (additional studies). Format: in vivo. The following applies: diabetes, thyroid dysfunction, enteropathy, eczema and others.
The subject of experiment [2] is effector memory T cells (TEM). Nature of the experiment: Kv1.3 expression, cytokine production and proliferation of TEM in activated PBMCs from IPEX subjects, with or without ShK-186 (flow cytometry, RT-QPCR). Format: cell-based, human. As for the experimental part:
This example is performed to evaluate the expression of Kv1.3 channels by TEM found in IPEX subjects compared to controls, and to characterize the responsiveness of IPEX subject samples to treatment with therapeutic peptides such as the ShK-based peptide, ShK-186, formulated into a pharmaceutical composition. To evaluate Kv1.3 expression, peripheral blood mononuclear cells from IPEX and healthy controls are isolated. In the first phase of the example, the cells are activated in vitro with anti-CD3 antibodies or mitogens and then subjected to immunostaining and multicolor flow cytometry.
In the second phase, matching cell aliquots are analyzed by RT-QPCR for quantitation of Kv1.3 mRNA. In the third phase, matching cell aliquots are used to study the ability of ShK-186 to block the proinflammatory and proliferative potential of TEM from IPEX subjects versus controls. Cytokines (IFN-γ and IL-2, -4, -10, -17, and -21) and perforin are detected by intracellular cytokine staining and flow cytometry in resting or activated cells in the presence or absence of ShK-186. In this example, ten IPEX and ten normal controls are studied.
Peripheral blood mononuclear cells (PBMCs) are evaluated by multiparameter flow cytometry for cell surface expression of CD4 and CD25 and intracellular FOXP3. FACS sorting of all stimulated and stained samples will also be performed.

As to “(L-PhosphoTyr)-AEEAc-RSCIDTIPKSRCTAFQCKHSMKYRLSFCRKTCGTC-amide [ShK-186]”, the “clinically relevant improvements in IPEX and secondary conditions related to IPEX” value in experiment [1] is “produces clinically relevant improvements”. Moreover, in experiment [2] (PBMCs from IPEX subjects vs controls), the “proliferation of TEM” value is reported as “reduces”. In experiment [2] (PBMCs from IPEX subjects vs healthy controls, activated with anti-CD3 antibodies or mitogens), the “expression of Kv1.3 channels by TEM” value is recorded as “reduces”. In addition, in experiment [2] (intracellular cytokine staining and flow cytometry, resting or activated cells), the “IFN-γ and IL-2, -4, -10, -17, and/or -21 production by TEM” value is “reduces”.
